# Measured values taken from US20230000842A1, “METHODS OF TREATING CARTILAGE DISORDERS THROUGH INHIBITION OF CLK AND DYRK” (SAMUMED, LLC, priority 2019, published 2023).
# How the values were obtained:
# [1] = tested on: cartilage of MIA injected rats; experiment: Monosodium iodoacetate (MIA) injection induced OA model, cartilage Western blot; type: in vivo, rat; details: 4 days after single IA injection
# Description: Western blots for phospho-SRSF, SRSF1, AXIN2, phospho-NF-κB, total NFκB, phospho-STAT3, total STAT3, phospho-FOXO1 and total FOXO1 in the cartilage, with β-actin as a loading control.
# Male Sprague Dawley (SD) rats (250 g±30 g) (Charles River, Wilmington, Mass.) were used for all animal studies. All animals were treatment naïve at the start of the studies. Procedures were performed during the hours of 8 am-5 pm on weekdays in a sterile hood in the vivarium. Rats were housed in individual ventilated cages (≤3 per cage) under the following conditions:
# For cytokine, MMP, histology (H&E and Safranin O-Fast Green staining), OARSI scores and weight bearing measurements: At 10 weeks postnatal age, 20 rats were subjected to MIA injection (3 mg in 50 μL). Each rat was anesthetized with an isoflurane/O2 mixture until the flexor withdrawal reflex was abolished. The surgeon wore a face mask, hair net, lab coat and shoe covers, and gloves that were disinfected with betadine or chlorhexidine between animals. All tools were sterilized with an autoclave. MIA was dissolved in 0.9% (w/v) saline (3 mg in 50 μL). The solution was filtrated with 0.22 μm membrane before administration. After being shaved and disinfected with betadine or chlorhexidine solution, the right knees were injected intra-articularly with 50 μL of MIA using 0.5-in 26-gauge needle, while the contralateral knees received an IA injection of 0.9% saline. After injection, the injected surface was washed with sterile saline solution. All the rats were allowed to move freely in plastic cages until their necropsies at different time points post-MIA injection.
# On day 11, animals were sacrificed using Carbon dioxide (CO2). Cartilage was isolated, flash frozen in liquid Nitrogen and stored at −80° C. until processing for protein extraction.
# FOXO1 = experiment: Western blot and immunofluorescence of FOXO1 with IL1-β; type: cell-based, human; details: hMSCs and chondrocytes; in the presence of IL-1β; compared to DMSO
# Description: Cells were stained with anti-FOXO1 antibody (red) and DAPI nuclear stain (blue).
# (§1) Cells were plated at 300,000 cells per well in a 6-well plate and following an overnight incubation, treated with DMSO (vehicle control) or indicated compounds and incubated at 37° C. and 5% CO2 for the indicated times. Following treatment, cells were trypsinized and pelleted by centrifugation and washed with PBS. Total protein from the cell pellet was extracted or for fractionation, protein was fractionated into cytoplasmic and nuclear fractions using a Nuclear and Cytoplasmic Extraction Reagents (NE-PER™) kit containing Halt™ protease and phosphatase inhibitors (Thermo Fisher). Protein concentrations were quantified using the Pierce Micro BCA protein assay kit (Thermo Fisher). […] Blots were blocked with non-fat dry milk. Primary antibodies were incubated overnight at 4° C. β-actin and Lamin B1 were used as loading controls (Supplementary Table S2 for primary antibodies). Mouse and rabbit horseradish peroxidase (HRP)-conjugated secondary antibodies were diluted in 5% blocking buffer in TBS-T. Protein-antibody complexes were detected by chemiluminescence using the SuperSignal West Femto Chemiluminescent Substrate (Thermo Fisher) and images were captured with a UVP ChemiDocIt2 camera system (Fisher Scientific, Hampton, N.H.).
# [2] = tested on: CLK mediated phosphorylation of SRSF4, 5, 6; experiment: Western blot of phospho-SRSF in hMSCs and human chondrocytes; type: cell-based; details: 1 hr, vs DMSO
# Description: as §1
# [3] = tested on: nuclear speckles in hMSCs and chondrocytes; experiment: Nuclear speckles assay (phospho-SC35 immunofluorescence); type: cell-based, human; details: 30 nM, 100 nM, 6 hrs, compared to DMSO
# Source text: Cells were stained with phospho-SC35 antibody (green) or DAPI nuclear stain (blue).
# After approximately 6 hrs, cells were fixed and stained with a phospho-SC35 antibody (Santa Cruz Biotechnology), followed by an Alexa-Fluor 488 secondary antibody (Thermo Fisher) and DAPI (Thermo Fisher). Cells were imaged at 100× magnification using the EVOS FL (Life Technologies, Carlsbad, Calif.).
# [4] = tested on: primary human mesenchymal stem cells (hMSCs); experiment: Chondrogenesis screening using primary human mesenchymal stem cells; type: cell-based; details: Homo sapiens, Mesenchymal stem cells
# How it was run: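 Derived values are EC50 for 50% chondrogenesis, maximal activity and the dose giving it. These come from nodule area in passage 3–6 primary hMSCs, expressed as fold change over the mean of 3 same-plate DMSO wells, 2–3 replicates per concentration. TGF-β3 served as positive control.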
# [5] = tested on: Wnt pathway gene expression in hMSCs; experiment: Nanostring nCounter Wnt Pathways panel in hMSCs; type: cell-based, human; details: >2-fold change, p<0.05, FDR corrected
# Description: FIGS. 2D and 2E depict gene expression changes of selected genes from FIG. 2C by qRT-PCR (n=3, Mean±95% CI, *p<0.05, **p<0.01, ***p<0.001, one-way ANOVA). […] Downregulation of AXIN2, TCF7, LRP5, BAMBI, NKD1, PAI-1, LRP6, FZD6, FZD7, PITX2, ERBB2, and CTGF gene expression and increased levels of Wnt pathway inhibitors SFRP2 and DACT1 were determined by qPCR.
# Fifty nanograms of RNA was hybridized with Tagsets and probe pools from the nCounter® Vantage 3D™ Wnt Pathways Panel (NanoString Technologies) for 16 hrs at 67° C. Hybridized samples were ran on a nCounter® SPRINT Profiler (NanoString Technologies). Nanostring gene counts were normalized by the geometric mean of all housekeeping genes by nSolver (v3.0). P-values from normalized counts were calculated by an independent t-test and adjusted by the false discovery rate (FDR) method (Benjamini & Hochberg) to correct for multiple comparisons using R (v3.4.2). Data was plotted using R (v3.4.2).
# THP1 cells = experiment: Western blot of phospho- and total proteins in THP1 cells stimulated with LPS; type: cell-based
# Description: as §1
structure (smiles),measurement,setting,value
CC(C)CC(=O)Nc1cncc(-c2ccc3[nH]nc(-c4nc5c(-c6cccc(F)c6)cncc5[nH]4)c3c2)c1 [compound 123],protein levels of total FOXO1,[1],increased
same,protein levels of total NF-κB,[1],decreased
same,total protein levels of SRSF1 and STAT3,[1],no changes
same,"phosphorylation of SRSF, NF-κB, STAT3, and FOXO1",[1]; compared to vehicle,decreased
same,phosphorylation of FOXO1,FOXO1,dose-dependently inhibited
same,total FOXO1 protein levels and nuclear localization,FOXO1,increases
same,"CLK mediated phosphorylation of SRSF4, 5, 6",[2],dose-dependently inhibited
same,nuclear speckles (spliceosome modulation),[3],enlargement of nuclear speckles
same,Emax,"[4]; hMSC chondrogenesis, maximum activity relative to TGF-β3 (10 ng/mL) positive control, read-out: Max. Activity as % TGF-β3 activity",397%
same,EC50,[4]; read-out: Conc (nM) of 50% TGF-β3 activity,30 nM
same,number of Wnt pathway genes downregulated,[5],19 genes
same,number of Wnt pathway genes upregulated,[5],9 genes
same,"AKT, JNK1, cJUN, p38/MAPK and TLR4","THP1 cells; 4 hrs, compared to DMSO",not inhibited
same,"phospho-STAT3 (S727, Y705), phospho- and total NF-κB (p105/p50), and phospho-FOXO1/3a","THP1 cells; 4 hrs, compared to DMSO",dose-dependently decreased
same,"AKT, cJUN, p38/MAPK, and TLR4",THP1 cells; 20 hrs,remained unchanged
same,"NF-κB, STAT3, JNK1 and FOXO1/3a phosphorylation",THP1 cells; 20 hrs,robustly inhibited
same,phospho- or total NF-κB (p105/p50),"THP1 cells; THP1 cells + LPS, 10 mins, 30 mins, 1 hr or 2 hrs",no effects
same,phospho-STAT3 (Y705),"THP1 cells; THP1 cells + LPS, 1 hr, 2 hrs, 4 hrs and 20 hrs",inhibited
same,phospho- and total NF-κB,"THP1 cells; THP1 cells + LPS, 4 hrs and 20 hrs",decreased
same,total STAT3,"THP1 cells; THP1 cells + LPS, any timepoint",no effects
